Results: US12077503B2, “Substituted cyclic amides and their use as herbicides” (FMC CORPORATION, priority 2015, dated 2024)

How the values were obtained:
Format in all cases: in vivo
[1] = tested on: morningglory (Ipomoea spp.); experiment: Test A preemergence; conditions: Ipomoea, pre-emergence, 240 h, 0 to 100 scale (0 no effect, 100 complete control), read-out: Plant response rating, Morningglory; for pest or weed control at 500 g/ha: 500 g ai/ha, preemergence; for pest or weed control at 125 g/ha: Preemergence, 125 g ai/ha
Summary of the method: (§1)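 Compounds were formulated in a non-phytotoxic solvent mixture with surfactant and applied as a preemergence directed soil spray after seeding, or sprayed postemergence over plants 2 to 10 cm tall at the one- to two-leaf stage. Evaluation after about 10 d compared treated with untreated controls, using a scale from 0 (no effect) to 100 (complete control).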

[2] = tested on: crabgrass, large (Digitaria sanguinalis); experiment: Test A preemergence; conditions: Digitaria sanguinalis, pre-emergence, 240 h, 0 to 100 scale (0 no effect, 100 complete control), read-out: Plant response rating, Crabgrass, Large; for pest or weed control at 500 g/ha: 500 g ai/ha, preemergence; for pest or weed control at 125 g/ha: Preemergence, 125 g ai/ha
Summary of the method: as §1

[3] = tested on: velvetleaf (Abutilon theophrasti); experiment: Test A preemergence; conditions: Abutilon theophrasti, pre-emergence, 240 h, 0 to 100 scale (0 no effect, 100 complete control), read-out: Plant response rating, Velvetleaf; for pest or weed control at 500 g/ha: 500 g ai/ha, preemergence; for pest or weed control at 125 g/ha: Preemergence, 125 g ai/ha
Summary of the method: as §1

[4] = tested on: corn (Zea mays); experiment: Test A preemergence; conditions: Zea mays, pre-emergence, 240 h, 0 to 100 scale (0 no effect, 100 complete control); for Corn plant response rating (crop injury, 0 = no effect, 100 = complete kill) at 500 g/ha: 500 g ai/ha, preemergence; for Corn plant response rating (crop injury, 0 = no effect, 100 = complete kill) at 125 g/ha: Preemergence, 125 g ai/ha
Summary of the method: as §1

[5] = tested on: wheat (Triticum aestivum); experiment: Test A preemergence; conditions: Triticum aestivum, pre-emergence, 240 h, 0 to 100 scale (0 no effect, 100 complete control), read-out: Plant response rating, Wheat; for plant injury at 500 g/ha: 500 g ai/ha, preemergence; for plant injury at 125 g/ha: Preemergence, 125 g ai/ha
Summary of the method: as §1

[6] = tested on: morningglory (Ipomoea spp.); experiment: Test A postemergence; conditions: Ipomoea, post-emergence, 240 h, Postemergence; for pest or weed control at 125 g/ha: 125 g ai/ha, visual rating about 10 d after treatment, read-out: Morningglory plant response rating (0 to 100 scale); for pest or weed control at 500 g/ha: 500 g ai/ha, visual injury, 0 to 100 scale (0 no effect, 100 complete control), approx. 10 d, read-out: Plant response rating, Morningglory
Summary of the method: as §1

[7] = tested on: crabgrass, large (Digitaria sanguinalis); experiment: Test A postemergence; conditions: Digitaria sanguinalis, post-emergence, 240 h, Postemergence; for pest or weed control at 125 g/ha: 125 g ai/ha, visual rating about 10 d after treatment, read-out: Crabgrass, Large plant response rating (0 to 100 scale); for pest or weed control at 500 g/ha: 500 g ai/ha, visual injury, 0 to 100 scale (0 no effect, 100 complete control), approx. 10 d, read-out: Plant response rating, Crabgrass, Large
Summary of the method: as §1

[8] = tested on: velvetleaf (Abutilon theophrasti); experiment: Test A postemergence; conditions: Abutilon theophrasti, post-emergence, 240 h, Postemergence; for pest or weed control at 125 g/ha: 125 g ai/ha, visual rating about 10 d after treatment, read-out: Velvetleaf plant response rating (0 to 100 scale); for pest or weed control at 500 g/ha: 500 g ai/ha, visual injury, 0 to 100 scale (0 no effect, 100 complete control), approx. 10 d, read-out: Plant response rating, Velvetleaf
Summary of the method: as §1

**Q.** With `N#Cc1ccc(NC(=O)C2C(=O)NCC2c2ccccc2)cc1` (stereo not drawn) [Compound 1355] as the compound, how does the pest or weed control at 500 g/ha [1] read?
**A.** 0%

**Q.** What about the pest or weed control at 125 g/ha [1] of the same compound?
**A.** 0%

**Q.** What about the pest or weed control at 500 g/ha [2] of the same compound?
**A.** 0%

**Q.** What about the pest or weed control at 125 g/ha [2] of the same compound?
**A.** 0%

**Q.** What about the pest or weed control at 500 g/ha [3] of the same compound?
**A.** 0%

**Q.** What about the pest or weed control at 125 g/ha [3] of the same compound?
**A.** 0%

**Q.** And the Corn plant response rating (crop injury, 0 = no effect, 100 = complete kill) at 500 g/ha [4]?
**A.** 0%

**Q.** What about the Corn plant response rating (crop injury, 0 = no effect, 100 = complete kill) at 125 g/ha [4] of the same compound?
**A.** 0%

**Q.** What about the plant injury at 500 g/ha [5] of the same compound?
**A.** 0%

**Q.** What about the plant injury at 125 g/ha [5] of the same compound?
**A.** 0%

**Q.** What about the pest or weed control at 125 g/ha [6] of the same compound?
**A.** 0%

**Q.** What about the pest or weed control at 500 g/ha [6] of the same compound?
**A.** 0%

**Q.** What about the pest or weed control at 125 g/ha [7] of the same compound?
**A.** 0%

**Q.** What about the pest or weed control at 500 g/ha [7] of the same compound?
**A.** 0%

**Q.** And the pest or weed control at 125 g/ha [8]?
**A.** 0%

**Q.** And the pest or weed control at 500 g/ha [8]?
**A.** 0%

**Q.** `O=C1NCC(c2ccccc2)C1C(=O)Nc1cccnc1` (stereo not drawn) [Compound 1356] was tested. Which pest or weed control at 500 g/ha [1] did it give?
**A.** 0%

**Q.** What about the pest or weed control at 125 g/ha [1] of the same compound?
**A.** 0%

**Q.** And the pest or weed control at 500 g/ha [2]?
**A.** 0%

**Q.** And the pest or weed control at 125 g/ha [2]?
**A.** 0%

**Q.** What about the pest or weed control at 500 g/ha [3] of the same compound?
**A.** 0%

**Q.** What about the pest or weed control at 125 g/ha [3] of the same compound?
**A.** 0%

**Q.** And the Corn plant response rating (crop injury, 0 = no effect, 100 = complete kill) at 500 g/ha [4]?
**A.** 0%

**Q.** And the Corn plant response rating (crop injury, 0 = no effect, 100 = complete kill) at 125 g/ha [4]?
**A.** 0%

**Q.** And the plant injury at 500 g/ha [5]?
**A.** 0%

**Q.** And the plant injury at 125 g/ha [5]?
**A.** 0%

**Q.** What about the pest or weed control at 125 g/ha [6] of the same compound?
**A.** 0%

**Q.** What about the pest or weed control at 500 g/ha [6] of the same compound?
**A.** 0%

**Q.** What about the pest or weed control at 125 g/ha [7] of the same compound?
**A.** 0%

**Q.** And the pest or weed control at 500 g/ha [7]?
**A.** 0%

**Q.** And the pest or weed control at 125 g/ha [8]?
**A.** 0%

**Q.** And the pest or weed control at 500 g/ha [8]?
**A.** 0%

**Q.** For `O=C1NCC(c2ccccc2)C1C(=O)Nc1ccccc1` (stereo not drawn) [Compound 1358], which pest or weed control at 125 g/ha [1] is on record?
**A.** 0%

**Q.** And the pest or weed control at 500 g/ha [2]?
**A.** 80%

**Q.** And the pest or weed control at 125 g/ha [2]?
**A.** 20%

**Q.** And the pest or weed control at 500 g/ha [3]?
**A.** 0%

**Q.** And the pest or weed control at 125 g/ha [3]?
**A.** 0%

**Q.** What about the Corn plant response rating (crop injury, 0 = no effect, 100 = complete kill) at 500 g/ha [4] of the same compound?
**A.** 0%

**Q.** What about the Corn plant response rating (crop injury, 0 = no effect, 100 = complete kill) at 125 g/ha [4] of the same compound?
**A.** 0%

**Q.** And the plant injury at 500 g/ha [5]?
**A.** 50%

**Q.** And the plant injury at 125 g/ha [5]?
**A.** 0%

**Q.** What about the pest or weed control at 125 g/ha [6] of the same compound?
**A.** 0%

**Q.** And the pest or weed control at 500 g/ha [6]?
**A.** 0%

**Q.** And the pest or weed control at 125 g/ha [7]?
**A.** 0%

**Q.** And the pest or weed control at 500 g/ha [7]?
**A.** 30%

**Q.** And the pest or weed control at 125 g/ha [8]?
**A.** 0%

**Q.** And the pest or weed control at 500 g/ha [8]?
**A.** 0%

**Q.** How did the pest or weed control at 500 g/ha [1] turn out when `O=C1NCC(c2ccccc2)C1C(=O)Nc1ccccc1Oc1ccccc1` (stereo not drawn) [Compound 1357] was run?
**A.** 0%

**Q.** What about the pest or weed control at 125 g/ha [1] of the same compound?
**A.** 0%

**Q.** And the pest or weed control at 500 g/ha [2]?
**A.** 0%

**Q.** What about the pest or weed control at 125 g/ha [2] of the same compound?
**A.** 0%

**Q.** And the pest or weed control at 500 g/ha [3]?
**A.** 0%

**Q.** What about the pest or weed control at 125 g/ha [3] of the same compound?
**A.** 0%

**Q.** And the Corn plant response rating (crop injury, 0 = no effect, 100 = complete kill) at 500 g/ha [4]?
**A.** 0%

**Q.** And the Corn plant response rating (crop injury, 0 = no effect, 100 = complete kill) at 125 g/ha [4]?
**A.** 0%

**Q.** And the plant injury at 500 g/ha [5]?
**A.** 0%

**Q.** And the plant injury at 125 g/ha [5]?
**A.** 0%

**Q.** And the pest or weed control at 125 g/ha [6]?
**A.** 0%

**Q.** What about the pest or weed control at 500 g/ha [6] of the same compound?
**A.** 0%

**Q.** What about the pest or weed control at 125 g/ha [7] of the same compound?
**A.** 0%

**Q.** And the pest or weed control at 500 g/ha [7]?
**A.** 0%

**Q.** What about the pest or weed control at 125 g/ha [8] of the same compound?
**A.** 0%

**Q.** And the pest or weed control at 500 g/ha [8]?
**A.** 0%
